US5792784A, “Coupling product obtained from histamine and an amino acid” (Babizhayev; Marc, priority 1993, dated 1998)
Each block holds one compound with its values, some of them ahead of it.

Assays:
[1] = Inhibition of phosphatidylcholine liposome peroxidation (Fe/ascorbic acid; TBA/MDA); conditions: for MDA per mg of phospholipids: control 4.4
Excerpt: oxidation substrate: phosphatidylcholine liposomes
free radicals generating system : Fe/ascorbic acid detection: thiobarbituric acid (TBA)/malondialdehyde (MDA)

[2] = Inhibition of linoleic acid peroxidation (Fe/ascorbic acid; TBA/MDA); assay type: biochemical; conditions: 25 mM (mixture: 25 mM each), linoleic acid 0.25 mg/ml; for MDA per mg of linoleic acid: control 7.95
Procedure: oxidation substrate: linoleic acid (0.25 mg/ml), free radicals generating system: Fe/ascorbic acid detection: thiobarbituric acid (TBA)/malondialdehyde (MDA)

[3] = "Peroxidase" type activity on liposome model: reduction of phosphatidylcholine hydroperoxides (PC-OOH); assay type: biochemical
Procedure: The "peroxidase" type activity also has been evaluated on a "liposome" model. The phosphatidylcholine hydroperoxides (PC-OOH) are prepared according to a similar procedure to the one already described for the linoleic acid monoperoxide.
The peroxide species reduction is followed by dosing the remaining peroxides according to the method laid down by Hicks M and Gebicki J. M.--Anal. Biochem, vol 99, (1979), p. 249-253.

[4] = Inhibition of deoxyribose oxidation (superoxide from xanthine oxidase/hypoxanthine; TBA/MDA detection); assay type: biochemical; conditions: 10 mM
Excerpt: Several in vitro tests have been carried out in order to reveal the evoked different antioxidant properties.
Experimental procedure described by J. M. C. Gutteridge in Biochemistry Journal, vol. 224 (1984), p. 761-767: oxidation substrate: deoxyribose
Superoxide anions production system: xanthine oxidase/hypoxanthine detection: thiobarbituric acid/malondialdehyde (MDA)

[5] = system: gingival and buccal mucosa; assay: Repairing activity on the mucosa in stomatitis gingivitis; assay type: in vivo, patients; conditions: aqueous gel 0.28%
Excerpt: We have been able to study this action on stomatitis gingivitis of various origin (dental prothesis badly adapted, the taking by mistake of a corrosive liquid, and colbaltotherapy of the oropharyngeal aera.
In all the cases, the causes of deterioration of the gingival and buccal mucosa have been stopped. Over and above the classical treatments that were adapted and systematically given, was given to 50% of the patients, an aqueous orange flavour gel containing 0.28% of N-acetyl-3-phenyl-3-aminopropionyl-histamine.

[6] = Protection of micro seaweed oil against oxidation (malondialdehyde dosage, one month); conditions: 20 mmol per L oil
Excerpt: The pseudo-dipeptides products also can be used to protect cosmetic oils easily oxidizable, rich in unsaturated fatty acids formulated in cosmetic or dietetic.
It has been necessary to add 15 to 25 mmol of pseudo-dipeptides products of the invention per liter of oil according to the following formulation: […]
20 mmol of acetylated b-alanyl-histamine oil extracted from micro seaweed cultured in sea water very rich in unsaturated fatty acids, including EPA qs for 1L.
We have compared the ageing of this protected oil to the non-protected oil at the end of a month by the malondialdehyde dosage.

[7] = system: cataract; assay: Cataract patients: modification of the visual acuity at the end of 24 months; assay type: in vivo; conditions: 1% in isotonic saline, only one daily local dose
Excerpt: This example concerns the utilization of the β-alanyl-histamine to treat patients affected by cataract.
The study has been designed for a prospective evaluation of the modifications of the lens opacity in patients effected by cataract. All the patients have undergone an initial ophtalmic examination. It involved the making of the medical historical record of the patient, a measurement of the visual acuity at a maximum correction, direct or indirect ophtalmoscopies, an evaluation of the opacities with the slit lamp, a clinical grading of the lens after maximal mydriasis, a classification according to the cataract type, and lens pictures by retroillumination. Moreover, samples of blood have been taken at the beginning, then in follow-up for chemical analysis.
The general view has allowed to establish the initial state of patients before the treatment (definition of "base line").
Follow-up of ophtalmic examinations were carried out every two weeks for two months, then every month. They included maximum visual acuity after correction, direct or indirect ophtalmoscopies, a slit lamp examination, and after a maximum dilation of the pupil (excluding patients with primary open-angle glaucoma), a clinical lens grading, a classification of the cataract. Pictures also have been taken on lens observed by retroillumination or with the slit lamp.
In this study, differents groups have been determined, to be seen:
A group reference 1, with non-treated patients (5 patients, 7 eyes) […]
A group 3, has been submitted to the same treatment than the group 2, stimulated by an "attack type of treatment" during the first two weeks: 2 subcon-junctival junctival injections twice a week of 0.10 to 0.15 ml of the saline defined for the group 2 (3 patients, 4 eyes).
A group 4, which was given a local dose by way of an eye drop of isotonic saline twice a day (5 patients 7 eyes), the group 4 being like the group 1, a reference group.
Following the protocol described above, we determine the values of the optic density of the lens according to its opacity as well as the visual acuity, and the whole for 24 months. Considering these two parameters, we obtain tables giving results concerning the modification of the visual acuity at the end of 24 months in Tables 1 and 2, and the results concerning the modification of the visual opacity at the end of 24 months in Tables 3 and 4.

[8] = "Peroxidase" activity: reduction of 13-monoperoxide of linoleic acid (L-OOH); assay type: biochemical; conditions: 10 mM; 13-monoperoxide linoleic acid 0.5 mM; control 36.7
Procedure: Lipid peroxides evolution is monitored with the help of 3 methods:
1°) spectrophotometric measure at 233 nm
(O. S. Privett, C. Nickell, W. O. Lundberg, and P. D. Bayer, dans J.Am.Oil Chem. Soc, Vol 32 (1955), P.505-511
2°) Iodometric dosage: M.Hicks' and J. M. Gebicki's method, Analytical Biochemistry, vol 99 (1979), p 249-253.
3°) Chromatography on silica gel plate (hexane/ether/acetic acid 8/7/0.1).
(a) 13-monoperoxide linoleic acid 0.5 mM without reducing agent (preparation according to H. W. Gardner's method Lipids, Vol.10 (1975), p. 248-252).

[9] = Tests with peroxidized compounds: reducing behaviour; assay type: biochemical
[10] = system: gastric ulcer; conditions: rats with limited food-intake-time; cited from earlier work
[11] = system: murine splenocytes; assay: Immunostimulating activity in vitro on murine splenocytes (tritiated thymidine incorporation); assay type: cell-based; conditions: average of three measures
Excerpt: The procedure is extracted from: J. Kunert-Radek, H. Stepien, K. Lyson and M. Pawlikowski--"Effects of calcium channel modulators on the proliferation of mouse spleen lymphocytes in vitro"--Agents and Actions, vol. 29, Nos 3-4 (1990), p. 254-258.
The cell proliferation is followed by the measurement of the extent of incorporation of tritriated thymidine in the cells, expressed in numbers of desintegrations per mn, deducted from the background.
The results obtained with an immunostimulator of reference, concanavaline A, are given as a comparison.
The immunostimulating effect is expressed by an Index of Stimulation (IS) [formula]
The given values are corresponding to the average of three measures.

Compound: NCCc1c[nH]cn1 [Histamine, histamine]
% inhibition ([1]; 1 M (so in the source)): -45% | MDA per mg of phospholipids ([1]; 1 M (so in the source)): 6.4 mol MDA per mg of phospholipid | % inhibition ([1]; 10 M (so in the source)): -63% | MDA per mg of phospholipids ([1]; 10 M (so in the source)): 6.8 mol MDA per mg of phospholipid | % inhibition [2]: -32% | MDA per mg of linoleic acid [2]: 10.15 mol MDA per mg of linoleic aci

Compound: N[C@@H](Cc1c[nH]cn1)C(=O)O [Histidine]
% inhibition ([1]; 1 mM): -48% | MDA per mg of phospholipids ([1]; 1 mM): 6.6 mol MDA per mg of phospholipid

Compound: c1c[nH]cn1 [Imidazole]
% inhibition [2]: 11% | MDA per mg of linoleic acid [2]: 6.95 mol MDA per mg of linoleic aci

% inhibition of deoxyribose oxidation [4]: 37%
Compound: NCCC(=O)N[C@@H](Cc1c[nH]cn1)C(=O)O [L-carnosine, β-alanyl-histidine, reference compound]
MDA per mg of phospholipids ([1]; 10 mM): 2.0 mol MDA per mg of phospholipid | number of moles of PC-OOH reduced/initial number of moles of PC/hour ([3]; 10 mM): 3.16 × 10^-3 moles of PC-OOH reduced/initia | number of moles of PC-OOH reduced/initial number of moles of PC/hour ([3]; 25 mM): 3.65 × 10^-3 moles of PC-OOH reduced/initia | % inhibition [2]: 59% | MDA per mg of linoleic acid [2]: 3.24 mol MDA per mg of linoleic aci

Compound: CC(=O)NC(CC(=O)NCCc1c[nH]cn1)c1ccccc1 (stereo not shown) [N-acetyl-3-phenyl-3-aminopropionyl-histamine]
tolerance [5]: excellent tolerance

Compound: CC(=O)NCCC(=O)NCCc1c[nH]cn1 [N-acetyl-β-alanyl-histamine]
protection against oxidation (malondialdehyde dosage) [6]: proves well the activity of the acetylated-β-alanyl-histamine in the protection against oxidation | results of eye drop treatment versus those previously obtained [7]: identical to the ones previously obtained

"peroxidase" activity [8]: 312.5 mol of L-OOH reduced/hour
Compound: [BH4-].[Na+] [NaBH4, sodium borohydride, reference compound]
reducing behaviour towards peroxidized compounds [9]: inhibits in an identical way the reaction of degradation

Compound: NCCC(=O)O [β-alanine]
% inhibition [2]: 0% | MDA per mg of linoleic acid [2]: 7.91 mol MDA per mg of linoleic aci

Compound: N- (3-aminopropionyl)--L-histidinato zinc [Z-103]
gastric ulcer treatment [10]: good results

Compound: concanavaline A [reference compound]
Index of Stimulation (IS) ([11]; 2.5 μg/ml): 4.8 | Index of Stimulation (IS) ([11]; 5 μg/ml): 25.1 | Index of Stimulation (IS) ([11]; 10 μg/ml): 20.5 | Index of Stimulation (IS) ([11]; 25 μg/ml): 12.6
